Laboratory results taken from patent US9321745B2, “Inhibition of neovascularization by inhibition of prostanoid IP receptors” (ALLERGAN, INC., priority 2013, dated 2016).

Key:
[1] = tested on: laser-induced choroidal neovascularization (CNV); test: Laser-induced model of choroidal neovascularization (CNV); assay type: in vivo
Protocol: A laser-induced model of CNV was employed, as known in the art, to determine whether blockade of IP receptors alone is sufficient to inhibit CNV. See e.g., Francois et al., 1975, Am. J. Ophthalmol. 79:206-210; Edelman & Castro, 2000, Exp. Eye Res. 71:523-533; Goody, R. J., et al., 2011, Exp. Eye. Research 92:464-472. Test rats were administered laser treatment after which vehicle (50% propylene glycol in H2O) or IP receptor antagonist Formula II was administered. The area of subsequently identified CNV was quantified by methods known in the art. […] Moreover, as depicted in FIG. 2C, the area of CNV was reduced on a per lesion basis.

[2] = biological target: T1, IP receptor (Homo sapiens, UniProt P43119); test: Inhibition of 100 nM cicaprost-induced VEGF secretion in TNFα-stimulated human macrophages; assay type: cell-based; conditions: TNFα-stimulated human macrophages from two individual donors, FIG. 1B
T1 construct: endogenous in cells; host or cells: TNFα-stimulated human macrophages from individual donors
T1 sequence (P43119 whole entry): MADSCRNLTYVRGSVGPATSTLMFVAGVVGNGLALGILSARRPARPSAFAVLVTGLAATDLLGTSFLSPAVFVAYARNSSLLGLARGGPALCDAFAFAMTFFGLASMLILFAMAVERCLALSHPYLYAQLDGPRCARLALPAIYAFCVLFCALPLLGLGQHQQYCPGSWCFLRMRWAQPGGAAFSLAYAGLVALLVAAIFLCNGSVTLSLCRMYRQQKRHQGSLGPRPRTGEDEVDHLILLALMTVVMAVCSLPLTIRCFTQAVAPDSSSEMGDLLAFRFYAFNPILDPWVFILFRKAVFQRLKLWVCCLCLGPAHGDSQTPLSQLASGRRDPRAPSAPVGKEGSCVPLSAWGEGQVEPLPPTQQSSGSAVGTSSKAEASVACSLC
From the text: (§1) A TNFα-stimulated human macrophage system was employed, as known in the art, to assess the effect of IP receptor agonist and IP receptor antagonist on induction of VEGF secretion.
In order to test whether a IP receptor antagonist can reverse the effect of cicaprost-induced VEGF secretion in TNFα-stimulated human macrophages, the IP receptor antagonist Formula I was employed.

[3] = biological target: T1, IP receptor; test: Cicaprost-induced VEGF secretion in TNFα-stimulated human macrophages; assay type: cell-based; conditions: FIG. 1A
From the text: as §1

## O=C(N[C@@H](Cc1ccc(F)cc1)C(=O)O)OCc1cc2cc(-c3cccc(F)c3)ccc2o1 [Formula II]
[1]; after laser treatment, vs vehicle 50% propylene glycol in H2O, n=6, FIG. 2A
  area of CNV per test subject (rat vs. rat): significantly reduced
[1]; rat, after laser treatment, vs vehicle, n=12, FIG. 2B
  area of CNV, comparison of each eye (eye vs. eye): reduced
[1]; rat, after laser treatment, vs vehicle, n=38, FIG. 2C
  area of CNV on a per lesion basis (lesion vs. lesion): reduced
[1]; rat, FIG. 2 overall, vs vehicle 50% propylene glycol in H20
  inhibition of laser-induced choroidal neovascularization (CNV): sufficient to inhibit laser-induced choroidal neovascularization

## CC(C)Oc1ccc(Cc2ccc(NC3=NCCN3)cc2)cc1 [Formula I]
[2]
  inhibition of cicaprost-induced VEGF secretion: dose dependently inhibits

## CCC#CC[C@H](C)[C@H](O)C#C[C@@H]1[C@H]2C/C(=C/COCC(=O)O)C[C@H]2C[C@H]1O [cicaprost]
[3]
  induction of VEGF secretion: dose dependently induces VEGF secretion
